These results are taken from patent US20070117770A1, “Human ribosomal DNA (rDNA) and ribosomal RNA (rRNA) nucleic acids and uses thereof” (Cylene Pharmaceuticals, Inc., priority 2005, published 2007).

Holding throughout (assay): Protein kinase inhibition assay
Common to all, as to assay type: biochemical

One experiment has as its target NEK6(h) (Homo sapiens, UniProt Q9HC98). To be noted: read-out: percent residual activity of NEK6(h). As for the experimental part: (§1) Certain compounds were tested for activity in protein kinase inhibition assays. All substrates were dissolved and diluted to working stocks in de-ionized water, apart from histone H1 (10× working stock in 20 mM MOPS pH 7.0), PDKtide (10× working stock in 50 mM Tris pH 7.0) ATF2 (which is typically stored at a 20× working stock in 50 mM Tris pH 7.5, 150 mM NaCl, 0.1 mM EGTA, 0.03% Brij-35, 50% glycerol, 1 mM benzamidine, 0.2 mM PMSF and 0.1% R-mercaptoethanol), KKLNRTLSFAEPG (SEQ ID NO:203) and RRRLSFAEPG (SEQ ID NO:204) (50 mM HEPES pH 7.4) and GGEEEEYFELVKKKK (SEQ ID NO:205) (20 mM MOPS pH 7.0). All kinases were pre-diluted to a 10× working concentration prior to addition into the assay. The composition of the dilution buffer for each kinase is detailed below.
(§2) In a final reaction volume of 25 μl, NEK6 (h) (5-10 mU) is incubated with 8 mM MOPS pH 7.0, 0.2 mM EDTA, 300 μM FLAKSFGSPNRAYKK (SEQ ID NO:221), 10 mM MgAcetate and [gamma-33P-ATP] (specific activity approx. 500 cpm/pmol, concentration as required). The reaction is initiated by the addition of the MgATP mix. After incubation for 40 minutes at room temperature, the reaction is stopped by the addition of 5 μl of a 3% phosphoric acid solution. 10 μl of the reaction is then spotted onto a P30 filtermat and washed three times for 5 minutes in 75 mM phosphoric acid and once in methanol prior to drying and scintillation counting.

Another experiment deals with FGFR2(h) (Homo sapiens, UniProt P21802). The following applies: read-out: percent residual activity of FGFR2(h). As for the experimental part: as §1
as §2, with “FGFR2” for “NEK6”, “2.5 mM MnCl2, 0.1 mg/ml poly(Glu, Tyr) 4:1,” for “300 μM FLAKSFGSPNRAYKK (SEQ ID NO:221),”, “Filtermat A” for “P30 filtermat”

A further experiment has as its target Rsk1(h) (Homo sapiens, UniProt Q15418). The following applies: read-out: percent residual activity of Rsk1(h). As for the experimental part:
as §1
as §2, with “Rsk1” for “NEK6”, “30” for “300”, “KKKNRTLSVA” for “FLAKSFGSPNRAYKK”, “NO:212),” for “NO:221),”

The target of another experiment is EGFR(L861Q)(h) (Homo sapiens, UniProt P00533, L861Q). To be noted: read-out: percent residual activity of EGFR(L861Q)(h). As for the experimental part: as §1
as §2, with “EGFR (L861 Q)” for “NEK6”, “0.1 mg/ml poly(Glu, Tyr) 4:1,” for “300 μM FLAKSFGSPNRAYKK (SEQ ID NO:221),”, “Filtermat A” for “P30 filtermat”

In a further experiment the target is IGF-1R(h) (Homo sapiens, UniProt P08069). To be noted: read-out: percent residual activity of IGF-1R(h). As for the experimental part:
as §1
In a final reaction volume of 25 μl, IGF-1R (h) (5-10 mU) is incubated with 50 mM Tris pH 7.5, 0.1 mM EGTA, 0.1 mM Na3VO4, 0.1% R-mercaptoethanol, 250 μM KKKSPGEYVNIEFG (SEQ ID NO:207), 10 mM MnCl2, 10 mM MgAcetate and [gamma-33P-ATP] (specific activity approx. 500 cpm/pmol, concentration as required). The reaction is initiated by the addition of the MgATP mix. After incubation for 40 minutes at room temperature, the reaction is stopped by the addition of 5 μl of a 3% phosphoric acid solution. […]

The target in a further experiment is CK1γ1(h) (Homo sapiens, UniProt Q9HCP0). The following applies: read-out: percent residual activity of CK1γ1(h). As for the experimental part: as §1
CK1γ1(h), sequence (Q9HCP0 whole entry): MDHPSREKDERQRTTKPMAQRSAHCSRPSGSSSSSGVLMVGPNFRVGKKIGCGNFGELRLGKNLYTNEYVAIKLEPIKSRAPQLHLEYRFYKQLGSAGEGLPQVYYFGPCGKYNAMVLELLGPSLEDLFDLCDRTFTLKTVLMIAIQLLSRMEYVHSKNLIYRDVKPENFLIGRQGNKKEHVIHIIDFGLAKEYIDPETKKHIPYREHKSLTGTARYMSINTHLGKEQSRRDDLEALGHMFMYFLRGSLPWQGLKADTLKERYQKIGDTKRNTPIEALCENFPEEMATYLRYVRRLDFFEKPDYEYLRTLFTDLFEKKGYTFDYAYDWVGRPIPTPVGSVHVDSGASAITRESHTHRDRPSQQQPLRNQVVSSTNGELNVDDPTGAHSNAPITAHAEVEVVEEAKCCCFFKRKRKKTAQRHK
A further experiment deals with Mnk2(h) (Homo sapiens, UniProt Q9HBH9). To be noted: read-out: percent residual activity of Mnk2(h). As for the experimental part: as §1
A further experiment concerns the target HIPK3(h) (Homo sapiens, UniProt Q9H422). The following applies: read-out: percent residual activity of HIPK3(h). As for the experimental part:
as §1

The target in the next experiment is NLK (h) (Homo sapiens, UniProt Q9UBE8). To be noted: read-out: percent residual activity of NLK (h). As for the experimental part: as §1
NLK (h), sequence (Q9UBE8 whole entry): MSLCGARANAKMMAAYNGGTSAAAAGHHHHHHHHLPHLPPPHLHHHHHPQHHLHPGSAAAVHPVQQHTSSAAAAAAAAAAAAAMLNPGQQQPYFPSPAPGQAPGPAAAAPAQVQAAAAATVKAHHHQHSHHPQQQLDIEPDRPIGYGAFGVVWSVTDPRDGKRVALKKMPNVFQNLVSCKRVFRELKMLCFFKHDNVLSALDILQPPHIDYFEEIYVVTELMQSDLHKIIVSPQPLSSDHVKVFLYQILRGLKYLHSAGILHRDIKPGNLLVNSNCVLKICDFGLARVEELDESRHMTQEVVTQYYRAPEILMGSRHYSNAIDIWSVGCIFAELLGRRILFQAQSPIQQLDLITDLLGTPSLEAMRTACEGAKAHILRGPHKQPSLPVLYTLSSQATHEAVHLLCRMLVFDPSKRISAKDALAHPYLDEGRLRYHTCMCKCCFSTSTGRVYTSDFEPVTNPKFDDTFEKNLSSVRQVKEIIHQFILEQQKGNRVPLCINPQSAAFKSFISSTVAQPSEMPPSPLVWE
In another experiment the target is CaMKIIδ(h) (Homo sapiens, UniProt Q13557). To be noted: read-out: percent residual activity of CaMKIIδ(h). As for the experimental part: as §1
For the next experiment, the target named is EphA7(h) (Homo sapiens, UniProt Q15375). To be noted: read-out: percent residual activity of EphA7(h). As for the experimental part:
as §1

Molecules are shown by their SMILES.

IGF-1R(h), sequence (P08069 31-1367): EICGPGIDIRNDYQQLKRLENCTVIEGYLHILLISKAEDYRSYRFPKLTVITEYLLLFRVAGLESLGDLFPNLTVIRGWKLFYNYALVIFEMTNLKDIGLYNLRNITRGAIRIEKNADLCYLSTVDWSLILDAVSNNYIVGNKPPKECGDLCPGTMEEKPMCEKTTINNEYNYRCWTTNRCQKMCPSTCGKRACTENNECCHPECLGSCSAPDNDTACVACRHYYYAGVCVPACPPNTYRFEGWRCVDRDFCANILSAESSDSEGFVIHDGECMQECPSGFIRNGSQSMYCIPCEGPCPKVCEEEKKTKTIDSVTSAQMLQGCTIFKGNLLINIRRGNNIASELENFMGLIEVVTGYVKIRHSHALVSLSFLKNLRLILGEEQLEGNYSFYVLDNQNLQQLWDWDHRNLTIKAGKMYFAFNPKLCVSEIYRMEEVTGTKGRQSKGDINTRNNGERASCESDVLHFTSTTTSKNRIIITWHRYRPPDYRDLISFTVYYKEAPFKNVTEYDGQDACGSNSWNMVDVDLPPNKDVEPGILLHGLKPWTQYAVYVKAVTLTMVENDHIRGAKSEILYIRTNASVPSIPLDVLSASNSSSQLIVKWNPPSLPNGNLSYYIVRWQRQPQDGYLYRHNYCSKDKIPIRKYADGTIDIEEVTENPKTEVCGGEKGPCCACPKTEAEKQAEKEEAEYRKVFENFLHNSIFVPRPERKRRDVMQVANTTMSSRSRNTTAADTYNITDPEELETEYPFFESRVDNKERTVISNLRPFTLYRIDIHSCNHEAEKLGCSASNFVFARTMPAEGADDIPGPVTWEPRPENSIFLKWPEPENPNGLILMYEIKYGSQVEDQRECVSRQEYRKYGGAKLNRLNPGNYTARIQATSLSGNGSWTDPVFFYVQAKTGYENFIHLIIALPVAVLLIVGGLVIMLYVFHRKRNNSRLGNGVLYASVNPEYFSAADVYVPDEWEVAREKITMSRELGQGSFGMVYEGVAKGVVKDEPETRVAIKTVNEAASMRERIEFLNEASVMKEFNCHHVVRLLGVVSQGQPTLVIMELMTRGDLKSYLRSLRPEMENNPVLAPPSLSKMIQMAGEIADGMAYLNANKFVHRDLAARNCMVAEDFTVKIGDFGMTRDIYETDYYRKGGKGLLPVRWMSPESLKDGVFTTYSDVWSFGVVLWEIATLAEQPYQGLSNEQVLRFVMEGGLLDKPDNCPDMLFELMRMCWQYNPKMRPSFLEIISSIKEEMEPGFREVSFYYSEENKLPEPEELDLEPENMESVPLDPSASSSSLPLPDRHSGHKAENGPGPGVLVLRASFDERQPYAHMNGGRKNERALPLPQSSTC
HIPK3(h), sequence (Q9H422 whole entry): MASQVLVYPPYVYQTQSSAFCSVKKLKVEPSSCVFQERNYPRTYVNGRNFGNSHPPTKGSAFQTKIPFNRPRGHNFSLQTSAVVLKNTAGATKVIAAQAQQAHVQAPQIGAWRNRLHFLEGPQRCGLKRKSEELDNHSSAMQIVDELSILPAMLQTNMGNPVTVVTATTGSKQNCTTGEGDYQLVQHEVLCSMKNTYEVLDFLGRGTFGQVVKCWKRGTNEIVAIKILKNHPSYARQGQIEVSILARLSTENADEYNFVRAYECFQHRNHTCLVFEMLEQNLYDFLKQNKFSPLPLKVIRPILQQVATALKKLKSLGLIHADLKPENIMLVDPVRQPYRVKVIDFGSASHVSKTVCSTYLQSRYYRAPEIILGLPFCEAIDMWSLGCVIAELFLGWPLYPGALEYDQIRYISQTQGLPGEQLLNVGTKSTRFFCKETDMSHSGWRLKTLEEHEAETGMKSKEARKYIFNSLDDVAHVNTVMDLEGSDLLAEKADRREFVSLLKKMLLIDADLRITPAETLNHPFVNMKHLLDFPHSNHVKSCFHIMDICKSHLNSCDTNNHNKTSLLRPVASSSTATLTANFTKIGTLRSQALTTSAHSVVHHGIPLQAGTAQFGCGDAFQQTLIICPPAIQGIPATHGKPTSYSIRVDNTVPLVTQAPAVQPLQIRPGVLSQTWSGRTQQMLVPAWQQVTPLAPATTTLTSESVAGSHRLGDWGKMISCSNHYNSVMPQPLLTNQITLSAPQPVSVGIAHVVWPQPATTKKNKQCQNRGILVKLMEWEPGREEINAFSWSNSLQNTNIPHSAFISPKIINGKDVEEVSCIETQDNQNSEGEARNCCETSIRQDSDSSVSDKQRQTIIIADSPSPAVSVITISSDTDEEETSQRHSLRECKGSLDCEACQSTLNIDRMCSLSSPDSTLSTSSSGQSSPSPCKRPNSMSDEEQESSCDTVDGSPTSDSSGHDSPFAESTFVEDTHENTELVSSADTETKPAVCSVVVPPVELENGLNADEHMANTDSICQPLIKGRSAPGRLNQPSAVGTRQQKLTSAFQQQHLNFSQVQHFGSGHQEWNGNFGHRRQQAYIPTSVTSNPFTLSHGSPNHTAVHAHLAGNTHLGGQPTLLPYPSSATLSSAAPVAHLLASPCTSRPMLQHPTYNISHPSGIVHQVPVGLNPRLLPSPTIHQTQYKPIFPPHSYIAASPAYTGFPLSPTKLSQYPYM
NEK6(h), sequence (Q9HC98 whole entry): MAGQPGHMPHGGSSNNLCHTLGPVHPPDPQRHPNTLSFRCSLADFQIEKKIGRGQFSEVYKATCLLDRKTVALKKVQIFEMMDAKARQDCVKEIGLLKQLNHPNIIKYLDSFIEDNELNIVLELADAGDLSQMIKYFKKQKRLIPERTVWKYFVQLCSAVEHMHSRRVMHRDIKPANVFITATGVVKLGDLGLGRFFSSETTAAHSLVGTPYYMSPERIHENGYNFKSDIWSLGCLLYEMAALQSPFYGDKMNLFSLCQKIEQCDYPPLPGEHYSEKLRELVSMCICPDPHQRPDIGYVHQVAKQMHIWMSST
EphA7(h), sequence (Q15375 28-998): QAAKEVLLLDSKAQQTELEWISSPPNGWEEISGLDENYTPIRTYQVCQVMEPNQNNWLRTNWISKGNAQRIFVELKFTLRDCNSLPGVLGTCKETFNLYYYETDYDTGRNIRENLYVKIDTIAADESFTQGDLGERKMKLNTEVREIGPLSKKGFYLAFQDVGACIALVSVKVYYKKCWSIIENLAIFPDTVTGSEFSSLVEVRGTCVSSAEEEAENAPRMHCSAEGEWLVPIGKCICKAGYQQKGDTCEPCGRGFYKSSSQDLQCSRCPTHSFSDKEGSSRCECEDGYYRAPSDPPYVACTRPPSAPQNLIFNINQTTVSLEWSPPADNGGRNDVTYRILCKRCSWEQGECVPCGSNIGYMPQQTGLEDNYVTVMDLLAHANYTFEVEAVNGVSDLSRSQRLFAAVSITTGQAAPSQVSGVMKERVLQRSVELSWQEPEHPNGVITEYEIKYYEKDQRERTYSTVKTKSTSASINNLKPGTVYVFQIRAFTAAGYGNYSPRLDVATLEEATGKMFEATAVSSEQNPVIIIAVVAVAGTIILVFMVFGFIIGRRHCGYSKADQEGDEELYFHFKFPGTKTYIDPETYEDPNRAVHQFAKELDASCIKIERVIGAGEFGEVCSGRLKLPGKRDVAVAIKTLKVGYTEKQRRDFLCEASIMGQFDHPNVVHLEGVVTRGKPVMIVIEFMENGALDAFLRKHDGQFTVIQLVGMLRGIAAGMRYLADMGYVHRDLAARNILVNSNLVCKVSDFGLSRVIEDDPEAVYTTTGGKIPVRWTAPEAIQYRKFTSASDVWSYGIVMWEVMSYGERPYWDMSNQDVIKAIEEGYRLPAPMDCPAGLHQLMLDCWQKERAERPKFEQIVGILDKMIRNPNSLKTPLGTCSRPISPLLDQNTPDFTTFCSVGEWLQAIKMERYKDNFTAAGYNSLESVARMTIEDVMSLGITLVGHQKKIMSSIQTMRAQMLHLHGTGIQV

As to `CN1CCCC1CCNC(=O)c1cn2c3c(c(N4CCC(c5cnccn5)C4)c(F)cc3c1=O)Oc1cc3ccccc3cc1-2` (stereo not shown) [Compound A-1], the remaining activity at 2.5 µM on NEK6(h) was 78%; at FGFR2(h) it was 76%; at Rsk1(h) it was 85%; at EGFR(L861Q)(h), 94%; on IGF-1R(h) it was 103%; at CK1γ1(h) it was 90%. Further, the remaining activity at 2.5 µM stood at 98% at Mnk2(h); 102% on HIPK3(h); 90% on NLK (h); 88% at CaMKIIδ(h); 109% on EphA7(h).
As for `CC(=O)N1CCN(c2ccc3c(=O)c(C(=O)NCCN4CCCC4)c4n(C)c5ccccc5n4c3n2)CC1` [Compound B-1], the remaining activity at 2.5 µM at NEK6(h) was determined as 111%; on FGFR2(h), 89%; on Rsk1(h), 103%; on EGFR(L861Q)(h), 109%; on IGF-1R(h), 113%; on CK1γ1(h) it was 100%. For the same compound, the remaining activity at 2.5 µM at Mnk2(h) was found to be 115%; on HIPK3(h) it was 97%; at NLK (h), 109%; on CaMKIIδ(h), 96%; on EphA7(h) it was 100%.
